In ChEMBL document CHEMBL2069253, “Dipeptidyl peptidase-4 inhibitor with β-amino amide scaffold: synthesis, SAR and biological evaluation” (Bioorg Med Chem Lett, 2012):

Legend:
[1] = target: T1, CYP3A4 (Homo sapiens, UniProt P08684); test: Inhibition of CYP3A4 at 10 uM; assay type: ADME
[2] = species: Mus musculus; test: animal or person; details: C57BL/6J, Plasma, po, 1 h, read-out: INH
Description: In vivo inhibition of DPP4 in C57BL/6J mouse plasma at 10 mg/kg, po measured after 1 hr

[3] = species: Mus musculus; test: animal or person; details: C57BL/6J, Plasma, po, 1 h, read-out: INH; remark: listed apart in the source
Description: In vivo inhibition of DPP4 in C57BL/6J mouse plasma at 3 mg/kg, po measured after 1 hr

[4] = target: T1, CYP3A4; test: Inhibition of CYP3A4 at 3 uM; assay type: ADME
[5] = target: Dipeptidyl peptidase 4 (Mus musculus, UniProt P28843); test: Inhibition of mouse DPP4
Chain of Dipeptidyl peptidase 4 (P28843 whole entry): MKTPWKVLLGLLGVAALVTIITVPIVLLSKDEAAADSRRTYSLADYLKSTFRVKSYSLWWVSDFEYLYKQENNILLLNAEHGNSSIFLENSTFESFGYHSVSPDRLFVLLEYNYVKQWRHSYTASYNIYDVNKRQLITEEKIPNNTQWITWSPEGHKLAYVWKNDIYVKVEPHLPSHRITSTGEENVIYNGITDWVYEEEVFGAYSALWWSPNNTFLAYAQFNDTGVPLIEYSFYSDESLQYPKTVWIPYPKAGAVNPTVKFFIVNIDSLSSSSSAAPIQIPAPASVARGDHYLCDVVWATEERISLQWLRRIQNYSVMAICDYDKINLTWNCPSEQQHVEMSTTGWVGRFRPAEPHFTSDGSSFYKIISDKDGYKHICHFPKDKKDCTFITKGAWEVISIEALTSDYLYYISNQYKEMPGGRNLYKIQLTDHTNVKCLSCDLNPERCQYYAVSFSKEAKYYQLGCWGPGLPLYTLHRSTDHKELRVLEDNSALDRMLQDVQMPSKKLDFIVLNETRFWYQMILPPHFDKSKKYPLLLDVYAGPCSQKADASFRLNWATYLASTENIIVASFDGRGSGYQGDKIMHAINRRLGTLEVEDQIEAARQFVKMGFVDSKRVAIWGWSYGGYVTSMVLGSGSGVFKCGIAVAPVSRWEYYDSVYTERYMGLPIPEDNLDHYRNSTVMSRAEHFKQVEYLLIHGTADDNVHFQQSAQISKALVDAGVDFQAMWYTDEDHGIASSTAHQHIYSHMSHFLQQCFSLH

[6] = target: T1, CYP3A4; test: Inhibition of CYP3A4 at 1 uM; assay type: ADME
[7] = species: Mus musculus; test: animal or person; details: C57BL/6J, Plasma, po, 1 h, read-out: INH; remark: listed apart in the source
Description: In vivo inhibition of DPP4 in C57BL/6J mouse plasma at 1 mg/kg, po measured after 1 hr

[8] = species: Mus musculus; test: animal or person; details: C57BL/6J, Plasma, po, 1 h, read-out: INH; remark: listed apart in the source
Description: In vivo inhibition of DPP4 in C57BL/6J mouse plasma at 0.3 mg/kg, po measured after 1 hr

[9] = species: Mus musculus; test: animal or person; details: C57BL/6J, Plasma, po, 1 h
Description: In vivo inhibition of DPP4 in po dosed C57BL/6J mouse plasma measured after 1 hr

[10] = target: T2, Cytochrome P450 3A4 (Homo sapiens, UniProt P08684); test: Inhibition of CYP3A4; assay type: ADME
T2 sequence (P08684 whole entry): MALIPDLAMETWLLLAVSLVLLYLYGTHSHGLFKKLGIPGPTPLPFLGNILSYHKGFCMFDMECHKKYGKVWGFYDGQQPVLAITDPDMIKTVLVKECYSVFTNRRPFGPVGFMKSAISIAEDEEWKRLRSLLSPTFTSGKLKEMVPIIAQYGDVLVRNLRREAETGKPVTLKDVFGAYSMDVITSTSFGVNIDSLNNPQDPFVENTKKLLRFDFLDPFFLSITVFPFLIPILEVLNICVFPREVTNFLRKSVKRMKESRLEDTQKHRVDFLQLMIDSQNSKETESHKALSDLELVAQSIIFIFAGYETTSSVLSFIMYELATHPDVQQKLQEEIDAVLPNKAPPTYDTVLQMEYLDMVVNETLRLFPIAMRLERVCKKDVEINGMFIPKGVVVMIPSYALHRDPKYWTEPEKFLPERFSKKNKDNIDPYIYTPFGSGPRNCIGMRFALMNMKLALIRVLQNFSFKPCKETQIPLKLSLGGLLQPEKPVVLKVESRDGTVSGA

[11] = species: Mus musculus; test: animal or person; details: C57BL/6J, po, 1 h, read-out: INH
Description: In vivo inhibition of DPP4 in C57BL/6J mouse at 1 mg/kg, po measured after 1 hr

[12] = Protein binding in human; assay type: ADME, organism-based; details: plasma, read-out: PB (converted)
[13] = species: Mus musculus; test: animal or person; details: C57BL/6J, po, 1 h, read-out: INH; remark: listed apart in the source
Description: In vivo inhibition of DPP4 in C57BL/6J mouse at 3 mg/kg, po measured after 1 hr

[14] = species: Mus musculus; test: animal or person; details: C57BL/6J, po, 1 h, read-out: INH; remark: listed apart in the source
Description: In vivo inhibition of DPP4 in C57BL/6J mouse at 10 mg/kg, po measured after 1 hr

[15] = Solubility of the compound at pH 1-9; assay type: physicochemical; details: buffer
[16] = species: Mus musculus; test: animal or person; details: C57BL/6J, po, 2 h
Description: Antidiabetic activity in po dosed C57BL/6J mouse assessed as reduction in glucose AUC administered prior to glucose challenge measured up to 120 mins

[17] = Metabolic stability in mouse liver microsomes assessed as compound remaining at 1 hr; assay type: ADME, Microsome; details: read-out: Stability
[18] = species: Rattus norvegicus; test: animal or person; details: Sprague-Dawley, Plasma, po, 24 h, read-out: INH
Description: In vivo inhibition of DPP4 in Sprague-Dawley rat plasma at 10 mg/kg, po administered as single dose measured after 24 hrs

[19] = Metabolic stability in human liver microsomes assessed as compound remaining at 1 hr; assay type: ADME, Microsome; details: read-out: Stability
[20] = Protein binding in mouse; assay type: ADME, organism-based; details: plasma, read-out: PB (converted)
[21] = target: T2, Cytochrome P450 3A4; test: Induction of CYP3A4 at 50 uM; assay type: ADME
[22] = Half life in rat at 10 mg/kg, po; assay type: ADME, organism-based; design: dose 10 mg/kg, route oral; details: in vivo
[23] = Stability in mouse plasma assessed as compound remaining at 1 hr; assay type: ADME, cell-free; details: read-out: Stability
[24] = Oral bioavailability in rat at 10 mg/kg; assay type: ADME, organism-based; details: in vivo
[25] = Metabolic stability in dog liver microsomes assessed as compound remaining at 1 hr; assay type: ADME, Canis lupus familiaris, Microsome; details: read-out: Stability
[26] = Metabolic stability in rat liver microsomes assessed as compound remaining at 1 hr; assay type: ADME, Microsome; details: read-out: Stability
[27] = Stability in human plasma assessed as compound remaining at 1 hr; assay type: ADME, cell-free; details: read-out: Stability
[28] = Stability in rat plasma assessed as compound remaining at 1 hr; assay type: ADME, cell-free; details: read-out: Stability
[29] = Protein binding in rat; assay type: ADME, organism-based; details: plasma, read-out: PB (converted)
[30] = species: Rattus norvegicus; test: animal or person; details: Sprague-Dawley, Plasma, po, 6 h, read-out: INH
Description: In vivo inhibition of DPP4 in Sprague-Dawley rat plasma at 10 mg/kg, po administered as single dose measured up to 6 hrs

[31] = Cmax in rat at 10 mg/kg, po; assay type: ADME, organism-based; design: dose 10 mg/kg, route oral; details: in vivo

T1 sequence (P08684 whole entry): as above

With `N[C@@H](CC(=O)N1CCN(c2ccc(F)cc2F)CC1)Cc1cc(F)c(F)cc1F` the inhibition at 10 µM [1] was 100%, the inhibition in vivo at 10 mg/kg [2] was 85.9% and the inhibition in vivo at 3 mg/kg [3] was 68.6%. The inhibition at 3 µM [4] was 94%, the IC50 [5] was 94.4 nM and the inhibition at 1 µM [6] was 81.5%. It also gave an inhibition in vivo at 1 mg/kg [7] of 52.2%, an inhibition in vivo at 0.3 mg/kg [8] of 33.8% and an ED50 [9] of 0.87 mg/kg.
`N[C@@H](CC(=O)N1CCN(C(=O)c2ccccc2)CC1)Cc1cc(F)c(F)cc1F` showed an IC50 [10] of 1000 nM.
`N[C@@H](CC(=O)N1CCN(C(=O)c2ccc(F)cc2)CC1)Cc1cc(F)c(F)cc1F` showed an IC50 [10] of 1000 nM.
With `N[C@@H](CC(=O)N1CCN(C(=O)c2ccc(O)cc2)CC1)Cc1cc(F)c(F)cc1F` the IC50 [10] was 1000 nM.
Work on `N[C@@H](CC(=O)N1CCN(C(=O)c2ccc(OC(F)(F)F)cc2)CC1)Cc1cc(F)c(F)cc1F` yielded an IC50 [10] of 1000 nM.
With `N[C@@H](CC(=O)N1CCN(C(=O)c2ccc(C(F)(F)F)cc2)CC1)Cc1cc(F)c(F)cc1F` the IC50 [10] was 1000 nM.
In the case of `N[C@@H](CC(=O)N1CCN(C(=O)c2ccc(S(N)(=O)=O)cc2)CC1)Cc1cc(F)c(F)cc1F`, the IC50 [10] is reported as 1000 nM.
Compound `N[C@@H](CC(=O)N1CCN(C(=O)c2ccc(C(=O)O)cc2)CC1)Cc1cc(F)c(F)cc1F` has an IC50 [10] of 1000 nM.
Compound `N[C@@H](CC(=O)N1CCN(C(=O)c2cccc(C(=O)O)c2)CC1)Cc1cc(F)c(F)cc1F` has an IC50 [10] of 1000 nM.
`CN1CCN(c2ccc(C(=O)N3CCN(C(=O)C[C@H](N)Cc4cc(F)c(F)cc4F)CC3)cc2)CC1` gave an IC50 [10] of 1000 nM.
In the case of `N[C@@H](CC(=O)N1CCN(C(=O)c2ccccn2)CC1)Cc1cc(F)c(F)cc1F`, the inhibition in vivo at 1 mg/kg [11] is reported as 32.5%, the fraction unbound [12] is reported as 0.497 and the inhibition in vivo at 3 mg/kg [13] is reported as 59.1%. For the same compound, the inhibition in vivo at 10 mg/kg [14] was 84.6%, the solubility [15] was greater than 10000 µg/mL and the ED30 [16] was 0.38 mg/kg. It also gave a remaining at 1 h [17] of 79%, an inhibition in vivo at 10 mg/kg [18] of 30% and a remaining at 1 h [19] of 89%. The fraction unbound [20] was 0.557, the Activity [21] was less than 10% and the half-life [22] was 4.74 h. It also gave a remaining at 1 h [23] greater than 97%, a bioavailability [24] of 65.3% and a remaining at 1 h [25] of 88%. It also gave a remaining at 1 h [26] of 85%, a remaining at 1 h [27] of 97% and a remaining at 1 h [28] greater than 97%. The fraction unbound [29] was 0.729, the inhibition in vivo at 10 mg/kg [30] was 60% and the Cmax [31] was 2030 ng/mL.
